± gives the standard deviation of the averaged measurements.
Experiments:
NUTLIN3 = compound: COc1ccc(C2=N[C@@H](c3ccc(Cl)cc3)[C@@H](c3ccc(Cl)cc3)N2C(=O)N2CCNC(=O)C2)c(OC(C)C)c1 [NUTLIN3]; experiment: surviving fraction relative to DMSO-only wells; higher = less growth inhibition; settings: exposure time: 5 days
How it was run: (§1)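 For each tumour cell line, log-phase cells were put into 384-well plates at 250–500 cells per well, then after 24 hours exposed continuously for five days to inhibitors at 0.5, 1, 5, 10, 50, 100, 500 and 1000 nM. Viability was assessed by CellTiter-Glo luminescence, with surviving fraction expressed relative to the median of DMSO-only wells. Lines were screened three times and retained only if replicate Pearson r exceeded 0.7 and median Z' exceeded 0.3.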

VISMODEGIB = compound: CS(=O)(=O)c1ccc(C(=O)Nc2ccc(Cl)c(-c3ccccn3)c2)c(Cl)c1 [VISMODEGIB]; experiment: as above; settings: exposure time: 5 days
How it was run: as §1

Test System	surviving fraction (NUTLIN3; 0.5 nM)	surviving fraction (NUTLIN3; 1 nM)	surviving fraction (NUTLIN3; 5 nM)	surviving fraction (NUTLIN3; 10 nM)	surviving fraction (NUTLIN3; 50 nM)	surviving fraction (NUTLIN3; 100 nM)	surviving fraction (NUTLIN3; 500 nM)	surviving fraction (NUTLIN3; 1000 nM)	surviving fraction (VISMODEGIB; 0.5 nM)	surviving fraction (VISMODEGIB; 1 nM)	surviving fraction (VISMODEGIB; 5 nM)	surviving fraction (VISMODEGIB; 10 nM)	surviving fraction (VISMODEGIB; 50 nM)	surviving fraction (VISMODEGIB; 100 nM)	surviving fraction (VISMODEGIB; 500 nM)	surviving fraction (VISMODEGIB; 1000 nM)
G292 BONE	0.982 ± 0.028	0.955 ± 0.03	1.06 ± 0.047	1.05 ± 0.032	1.03 ± 0.044	0.989 ± 0.026	1.01 ± 0.045	0.979 ± 0.054	0.963 ± 0.032	0.989 ± 0.018	1.01 ± 0.057	0.96 ± 0.016	0.959 ± 0.049	0.975 ± 0.019	0.927 ± 0.061	0.932 ± 0.014
HCC38 BREAST	1.19 ± 0.29	1.23 ± 0.12	1.35 ± 0.062	1.29 ± 0.12	1.28 ± 0.14	1.28 ± 0.11	1.22 ± 0.22	1.26 ± 0.25	0.743 ± 0.17	0.928 ± 0.2	0.895 ± 0.31	1.12 ± 0.38	0.668 ± 0.12	0.677 ± 0.24	0.743 ± 0.24	0.609 ± 0.11
HCC70 BREAST	1.03 ± 0.094	1.03 ± 0.043	1.02 ± 0.063	1.05 ± 0.087	1.07 ± 0.085	1.14 ± 0.055	1.04 ± 0.073	1.07 ± 0.084	0.977 ± 0.041	0.964 ± 0.067	1.14 ± 0.055	1.11 ± 0.012	1.11 ± 0.084	1.12 ± 0.048	1.04 ± 0.037	1.1 ± 0.026
HMLE3 BREAST	0.967 ± 0.059	0.985 ± 0.041	1.02 ± 0.028	0.996 ± 0.085	0.982 ± 0.046	0.995 ± 0.043	0.964 ± 0.025	1.02 ± 0.024	0.911 ± 0.11	0.929 ± 0.037	1 ± 0.03	0.949 ± 0.013	0.882 ± 0.096	0.969 ± 0.038	0.882 ± 0.15	0.893 ± 0.11
HMT3552 BREAST	0.97	0.984	1	1	1.19	1.21	1.12	1.14	1.07	1.02	1.05	1.06	0.804	1.16	0.925	0.937
HS57T BREAST	0.965 ± 0.045	0.991 ± 0.018	1.01 ± 0.045	1.04 ± 0.046	1.01 ± 0.023	1.12 ± 0.033	1.06 ± 0.027	1.04 ± 0.071	0.986 ± 0.066	0.987 ± 0.04	1.01 ± 0.062	1.04 ± 0.055	1.04 ± 0.028	0.959 ± 0.038	0.991 ± 0.037	0.978 ± 0.021
HS578T BREAST	1.11 ± 0.067	0.926 ± 0.069	0.883 ± 0.19	0.8973 ± 0.0049	0.92 ± 0.041	0.936 ± 0.072	0.913 ± 0.14	0.921 ± 0.06	0.936 ± 0.14	0.934 ± 0.077	1.05 ± 0.062	0.964 ± 0.069	0.871 ± 0.11	0.881 ± 0.051	0.913 ± 0.15	0.983 ± 0.15

Source: the supplement of paper PMC6045584
